Assay results as given in US12398108B2, “Compounds, compositions, and methods for treating diseases” (Drexel University, priority 2017, dated 2025).

How the values were obtained:
[1] = target: Sigma1 receptor (Homo sapiens, UniProt Q99720); test: binding to Sigma1 receptor
[2] = tested on: Human Androgen Receptor; test: Indigo Biosciences Human Androgen Receptor Reporter Assay System; type: cell-based
Experimental: The compound's activity was also measured for its ability to inhibit androgen receptor reporter activity. The assay that was used was Indigo Biosciences Human Androgen Receptor Reporter Assay System. […] Based upon these activities, the compounds are expected to have anti-tumor effects.

[3] = tested on: breast cancer; test: administration to a subject who has breast cancer; type: in vivo
Experimental: 1-(2,2-Dimethyl-3-(4-(trifluoromethyl)phenoxy)propyl)-3-(pyrimidin-5-yl)guanidine is administered to a subject who has breast cancer. The tumor growth is inhibited and the tumor size is reduced.

[4] = administration to a subject in pain; type: in vivo
Experimental: 1-(2,2-Dimethyl-3-(4-(trifluoromethyl)phenoxy)propyl)-3-(pyrimidin-5-yl)guanidine is administered to a subject in pain. The subject's pain is alleviated.

Chain of Sigma1 receptor (Q99720 whole entry, species assumed): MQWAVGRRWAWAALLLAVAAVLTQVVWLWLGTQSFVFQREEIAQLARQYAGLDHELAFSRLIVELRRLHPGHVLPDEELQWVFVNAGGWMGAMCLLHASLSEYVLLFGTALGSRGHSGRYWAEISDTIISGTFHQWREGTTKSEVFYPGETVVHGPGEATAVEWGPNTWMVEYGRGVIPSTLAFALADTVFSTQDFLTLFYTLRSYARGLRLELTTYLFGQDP

binding to Sigma1 receptor [1]: nanomolar range
SMILES: CC(C)(CNC(=N)Nc1cncnc1)COc1ccc(C(F)(F)F)cc1 [1-(2,2-Dimethyl-3-(4-(trifluoromethyl)phenoxy)propyl)-3-(pyrimidin-5-yl)guanidine]
ability to inhibit androgen receptor reporter activity [2]: active
tumor growth [3]: inhibited
tumor size [3]: reduced
subject's pain [4]: alleviated
